Read-outs that look alike come from different tables or passages of the source.
Key:
[1] = target: T1, Orai1/STIM1 ICRAC channel (Homo sapiens, UniProt Q96D31); assay: Patch clamp (PatchXpress) of calcium currents in cells stably transfected with STIM1 and Orai1; type: cell-based
T1 construct: expressed in transfected cells
Excerpt: Isolated, stably transfected cells were monitored with patch clamp analysis (PatchExpress) to detect calcium currents with overexpressed, stably transfected STIM1 and Orai1 nucleic acids.

[2] = system: HEK[STIM1] cells (STIM1 overexpression)
Description: (§1) To test whether the […] entry pathway constitutively activated by STIM1 overexpression is pharmacologically similar to endogenous SOCE, HEK[STIM1] cells are pre-incubated with increasing doses of 2-APB and STIM1-induced Ca^2+ entry is measured.

[3] = system: endogenous SOCE in HEK-Zeo control cells; conditions: read-out: IC50 of inhibition of calcium entry, thapsigargin-mediated store depletion, readdition of external calcium
Description: as §1

[4] = target: T2, CRAC current in olf186-F+Stim transfectants (Drosophila melanogaster, UniProt Q9U6B8); assay: Whole-cell patch-clamp of Ca2+ current in olf186-F+Stim transfected S2 cells; type: cell-based
T2 construct: A cDNA clone, pAc5.1/olf186-F, encoding full-length Drosophila olf186-F-RB, was generated for transfection into S2 cells; expressed in transfected cells; host or cells: Drosophila S2 cells (transient, Nucleofector)
T2 sequence (Q9U6B8 1-351): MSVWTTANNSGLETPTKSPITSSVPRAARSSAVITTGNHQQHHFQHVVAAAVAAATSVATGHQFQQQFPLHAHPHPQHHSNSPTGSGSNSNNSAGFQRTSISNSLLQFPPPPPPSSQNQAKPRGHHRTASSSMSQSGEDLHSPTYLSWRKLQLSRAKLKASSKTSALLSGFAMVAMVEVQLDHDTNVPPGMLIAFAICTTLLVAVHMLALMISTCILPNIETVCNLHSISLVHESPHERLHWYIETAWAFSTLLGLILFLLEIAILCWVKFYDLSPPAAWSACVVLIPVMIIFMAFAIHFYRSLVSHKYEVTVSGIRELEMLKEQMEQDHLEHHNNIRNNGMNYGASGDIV
Description: Whole-Cell Recording. Patch-clamp experiments were performed at room temperature in the standard whole-cell recording configuration, using a holding potential of −10 mV. […] To calculate current densities, peak current amplitudes were divided by membrane capacitance for each cell.

[5] = target: STIM1 and Orai1 in HEK293 cells (Homo sapiens, UniProt Q96D31); conditions: HEK293 cells coexpressing STIM1 and Orai1; cited from earlier work
STIM1 and Orai1 in HEK293 cells, sequence (Q96D31 whole entry): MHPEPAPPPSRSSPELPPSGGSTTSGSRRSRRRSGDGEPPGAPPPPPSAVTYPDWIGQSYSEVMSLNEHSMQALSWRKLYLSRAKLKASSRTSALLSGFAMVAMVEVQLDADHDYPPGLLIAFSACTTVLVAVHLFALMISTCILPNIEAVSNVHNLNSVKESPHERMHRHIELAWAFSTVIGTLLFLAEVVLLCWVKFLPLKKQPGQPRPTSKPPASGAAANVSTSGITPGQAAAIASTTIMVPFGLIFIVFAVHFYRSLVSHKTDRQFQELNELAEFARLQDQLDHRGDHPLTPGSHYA

[6] = system: Jurkat cells; conditions: cited from earlier work
[7] = system: colon cancer cells; conditions: cited from earlier work
[8] = target: T3, STIM1/Orai1 CRAC channel (Homo sapiens, UniProt Q96D31); assay: FLIPR assay of Orai1/STIM1-dependent Ca2+ entry in stably transfected STIM1/Orai1 cells; type: cell-based
T3 construct: expressed in transfected cells
T3 sequence (Q96D31 whole entry): as above
Description: Cells are plated at 30K cells/50 uL media/well in PDL-coated 384-well plate (Greiner Cell Coat; VWR cat#82051-358) 24 hours before experiment. 20 μM Fluo-4-AM (Invitrogen cat#F-14201) are prepared, resuspended with 10 μl F-127, 20% pluronic solution in DMSO (Invitrogen cat#P3000MP), and added to 2.3 mL culture medium. Cells are loaded with dye by adding 5 μl of the 20 μM Fluo-4-AM solution to each well of the 384-well plate that already contained 50 μL of culture medium. The plates are kept in dark, RT, for approximately 1 hour. HBSS/1% HEPES/0.2 g/L MgCl2 was prepared and cells transferred to a plate washer to remove dye-loading solution from cells. The cells are washed with HBSS/1% HEPES/0.2 g/L MgCl2, being careful not to dislodge the cells. The final volume of buffer left on the cells should equal 40 μL. The cell plate is transferred to FLIPR monitoring instrument (Molecular Devices, Sunnyvale, Calif.), and 10 μL compound is added and incubated for 30 minutes. Data points (1/sec) are acquired prior to the addition of CaCl2 to establish basal readings. 5 μL 11 mM CaCl2 (1.0 mM CaCl2 final) is added, and the fluorescence read every second for 1 minute, then every 10 seconds for 14 minutes. […]
RBL-2H3 cells plated in 384-well plates are loaded for 45 min with FLUO-4-AM (2 μM final concentration) in a Hanks-buffered salt solution. […] Fifteen minutes after addition of Tg, store-operated calcium entry is initiated by adding external Ca^2+ to a final concentration of 1.8 mM and the cells monitored for a further 10-15 minutes. Calcium levels are monitored throughout the assay using a FLIPR^384 (Molecular Devices fluorimetric imaging plate reader for high throughput screening).
The kinetic data from the FLIPR^384 are analyzed and stored in a relational database (ActivityBase; IDBS). Ten quantitative parameters are calculated that define various aspects of the store-operated calcium entry response. […]

[9] = system: Drosophila S2 cells; assay: Single-cell ratiometric fura-2 [Ca2+]i imaging of S2 cells; type: cell-based; conditions: control cells, 1 μM ionomycin in zero-Ca2+ solution, average
Description: RNAi in Drosophila S2 Cells. RNAi experiments were adapted from the protocols described by Worby et al. Drosophila S2 cells (0.5×10^6) were seeded in T-25 flasks in 2 ml of complete S2 medium. The next day, medium was removed and replaced with 2 ml of serum-free S2 medium. Twenty micrograms of dsRNA was added, and cells were incubated at room temperature for 45 min with gentle rocking. Four milliliters of S2 medium was added, and cells were incubated for 5 days at 24° C. Cells then were harvested and either plated for single-cell Ca^2+ imaging and patch-clamp experiments or processed for RT-PCR analysis.
Single-Cell [Ca^2+]i imaging. Ratiometric [Ca^2+]i Imaging was performed as described in ref. 3, using solution recipes described in Table 3. Transfected cells were recognized by coexpressed enhanced GFP (EGFP), using filters to avoid contamination of Fura-2 fluorescence by bleedthrough of GFP fluorescence. Data were analyzed with METAFLUOR software (Universal Imaging, Downington, Pa.) and ORIGINPRO 7.5 software (OriginLab, Northampton, Mass.) and are expressed as means ±SEM.
Effects of olf186-F Knockdown and Overexpression on Ca^2+ Influx and CRAC Currents in Single Cells. […]

T1 sequence (Q96D31 whole entry): as above

**Q.** What does the source list for NCCOB(c1ccccc1)c1ccccc1 [2-APB, 2-aminoethoxydiphenyl borate]?
**A.** effect on CRAC channel currents (FIG. 8) [1]: potentiation; calcium entry at lower concentrations ([2]; absence of store depletion, lower concentrations): potentiated; IC50 ([2]; read-out: IC50 of inhibition of calcium entry, thapsigargin-mediated store depletion, readdition of external calcium): 10.5 µM; IC50 ([2]; read-out: IC50 of inhibition of constitutive calcium entry, absence of store depletion): 10.8 µM; IC50 [3]: 11.8 µM; effect on enhanced Ca2+ currents ([4]; 5 μM): potentiation of current before blocking; effect on enhanced Ca2+ currents ([4]; 20 μM): blocked; store-operated Ca2+ entry [5]: completely blocked

**Q.** Which results are given for Cc1nnsc1C(=O)Nc1ccc(-n2nc(C(F)(F)F)cc2C(F)(F)F)cc1 [BTP-2]?
**A.** SOCE [6]: inhibits; proliferation [6]: inhibits; SOCE [7]: inhibits; proliferation [7]: inhibits

**Q.** Which results are given for O=C(Nc1scc(-c2ccc(Br)cc2)c1C(=O)O)c1cccc(F)c1 [Cmpd B]?
**A.** CRAC-channel mediated Ca2+ entry [8]: inhibit; IC50 ([8]; read-out: IC50 (inhibition of calcium inflow)): 1.9 µM

**Q.** Which “effect on enhanced Ca2+ currents” value ([4]; 50 nM) does the source give for [Gd+3] [Gd^3+] here?
**A.** blocked

**Q.** Which “CRAC-channel mediated Ca2+ entry” value [8] does the source give for O=C(Nc1scc(-c2ccc(Br)cc2)c1C(=O)O)c1ccc(F)cc1 [compound A] here?
**A.** inhibit

**Q.** Which “peak of Ca2+ release transient” value [9] does the source give for C[C@H](CCC(=O)O)C[C@H](C)C[C@H](C)C(=O)/C=C(\O)[C@H](C)C[C@H](C)C/C=C/[C@@H](C)[C@@H](O)[C@@H](C)[C@@H](O)C[C@@H]1CC[C@@](C)([C@H]2CC[C@@](C)([C@@H](C)O)O2)O1 [ionomycin] here?
**A.** 200 nM
